Data reported in patent publication US7884067B2, “Peptides derived from cadherin and methods of use thereof” (Mount Sinai School of Medicine of New York University, priority 2001, dated 2011).

Columns and labels:
E-cadherin = E-cadherin cleavage in staurosporine-treated (apoptotic) A431 cells (Western blot); type: cell-based, human
Method: Cell Cultures and transfections. Cells were grown in Dulbecco's Modified Eagle Medium (DMEM) plus 10% fetal bovine serum, penicillin and streptomycin in 5% CO2 at 37° C. […] A431 cells were from American Type Culture Collection. […] A431D cells stably transfected with wild-type or GGG759-761AAA mutant E-cadherin were provided by Dr. A. B. Reynolds.
Immunoprecipitations (IPs), immunoblotting, immunofluorescence and confocal microscopy. For WB analysis of cell extracts, cells were washed with PBS and then solubilized in RIPA buffer. For IPs cells were solubilized in Hepes buffer (25 mM Hepes [pH 7.4], 150 mM NaCl, 1× Complete protease inhibitor cocktail, Roche) containing 1% digitonin (IPs with I-R222 and PI-R222 antibodies) or 1% Triton X-100 (IPs with β-catenin and desmoglein antibodies). Following centrifugation at 17,000×g for 10 min, supernatants (1 mg protein) were pre-cleared with protein A- or protein G-agarose (Pierce) for 2 hours. Supernatants were then incubated with antibodies overnight at 4° C. and treated for 2 hours with protein A-agarose (polyclonal antibodies) or with protein G-agarose (monoclonal antibodies). IPs were washed with Hepes buffer containing either 1% digitonin or 1% Triton X-100 and analyzed by SDS-PAGE. Immunofluorescence and confocal microscopy was performed as described by Georgakopoulos et al., (1999). Briefly, cells were plated on 22×22 mm collagen-coated glass coverslips, fixed in cold methanol for 10 min at −20° C. Following washing in TBS (25 mM Tris-HCl [pH 7.4], 150 mM NaCl), cells were treated with 10% goat serum in SuperBlock (Pierce) for 1 hour, incubated overnight with primary antibody (1:100), washed in TBS and then were incubated with species specific Alexa Fluor™ secondary antibody conjugates (Molecular Probes). Cells were washed with TBS, mounted with Prolong antifade kit (Molecular Probes), and photographed on a Leica confocal laser scanning microscope.
Conditional media (20 μl) from A431 cells cultured in the absence or presence of […] and treated with SDS as above were probed on Western blots with anti-E-cadherin ectodomain antibody H108.

[1] = tested on: CRE-dependent transactivation; assay: CRE-dependent transactivation in N2a cells; type: cell-based, mouse; design: dose or concentration left out as unconfirmed; conditions: 16 hours, vs DMSO, FIG. 10A
Method: (§1) Transactivation assays. CRE-dependent transactivation was measured in the absence or presence of overexpression of PKA (pFC-PKA, Stratagene) by cotransfection with CRE-luciferase reporter plasmid (pCRE-Luc, Stratagene) and pSV-β-galactosidase vector (Promega) to evaluate transfection efficiency. CHOP-mediated transactivation was measured by cotransfection with the Gal4-fusion trans-activator plasmids (pFA-CHOP and pFR-Luc, Stratagene). 30 hours after transfection, luciferase and β-galactosidase activities were determined following manufacturer's instructions using a TD-20/20 luminometer (Turner Designs) and a DU-64 spectrophotometer (Beckman). Values were normalized to β-galactosidase activity and protein concentration.
N2a cells co-transfected with plasmids pCRE-luc, pFC-PKA, and pSV-β-galactosidase were incubated for 16 hours with DMSO or with L-685,458 ([…]) and CRE-dependent transactivation was measured as described above. […] Total RNA isolated from N2a cells treated either with DMSO or with L-685,458, was analyzed by semiquantitative RT-PCR using specific primers for c-fos and gapdh. The graph in FIG. 10B represents the relative abundance of c-fos-specific PCR products following quantitation of the mRNA signals shown in the upper panel. […]

N-cadherin = assay: In vitro ε-cleavage assay, membranes from mouse brain neuronal cultures; type: biochemical; conditions: PS1+/− neurons, L-685,458 (0.5 μM)
Method: Primary, neuronal cultures. Mixed hippocampal and cortical neuronal cultures were prepared from E18 mouse or rat brains as described by Banker and Goslin (1991) Culturing Nerves Cells, London, MIT Press. Neurons were maintained 10 days in vitro in glial conditioned MEM containing 2% glucose and N2 supplements as described by Bottenstein and Sato (1979) Proc. Natl. Acad. Sci. USA 76: 514-517, and then were stimulated for 15 minutes with Mg2+-free Hanks' balanced salt solution (HBSS, Sigma) containing KCl (50 mM), L-Glutamate ([…]) or NMDA ([…]). D-APV ([…]) was applied 15 minutes before stimulation.
In vitro γ-secretase-like ε-cleavage assay. Cells were washed in PBS, resuspended in 1 ml of 4° C. hypotonic buffer (10 mM MOPS, pH 7.0, 10 mM KCl) and homogenized on ice. A post-nuclear supernatant was prepared by centrifugation at 1000×g for 15 minutes at 4° C. Crude membranes were isolated from the post-nuclear supernatant by centrifugation at 16,000×g for 40 minutes at 4° C. The membranes were then resuspended in […] of assay buffer (150 mM sodium citrate, pH 6.4, 1× Complete protease inhibitor cocktail), and incubated at 37° C. for 2 hours. Samples were either analyzed directly by WB or separated into pellet (P100) and supernatant (S100) fractions by ultracentrifugation for 1 hour at 100,000×g at 4° C. The S100 and P100 fractions were then analyzed by WB.

CHOP-response elements = assay: CHOP-mediated transactivation (luciferase) in L cells; type: cell-based; conditions: L cells transfected with pN-Cad/CTF2, FIG. 9A
Method: as §1
(§2) Stimulation of synaptic NMDA receptor leads to phosphorylation of transcription factor CREB that then recruits transcription co-activator CBP, a process ultimately leading to activation of CREB-mediated gene expression (Impey and Goodman (2001) Sci STKE, PE1). […] CRE-dependent transactivation was measured in the absence (−) or presence (+) of […] PKA (pFC-PKA) using CRE-luciferase reporter plasmid (pCRE-Luc) and pSV-β-galactosidase vector. CHOP-mediated transactivation was measured by […] with the Gal4-fusion trans-activator plasmids (pFA-CHOP and pFR-Luc) and pSV-β-galactosidase vector. […]

[2] = tested on: CRE-dependent transactivation; assay: CRE-dependent transactivation (luciferase) in L cells; type: cell-based; conditions: L cells transfected with increasing amount of pN-Cad/CTF2, FIG. 9A
Method: as §1, §2

Row | Molecule | production of the 33 kDa cadherin fragment (E-Cad/CTF2) (E-cadherin; 30 minutes preincubation with L-685,458 (0.5 μM), then STS 6 hours) | E-Cad/CTF1 level on inhibition of E-Cad/CTF2 (E-cadherin; L-685,458 (0.5 μM), STS 6 hours) | CRE-dependent transactivation [1] | N-Cad/CTF2 peptide (N-cadherin) | transactivation by CHOP-response elements (CHOP-response elements) | constitutive and PKA-stimulated CRE-dependent transactivation [2]
1 | CC(C)C[C@H](NC(=O)[C@H](Cc1ccccc1)C[C@@H](O)[C@H](Cc1ccccc1)NC(=O)OC(C)(C)C)C(=O)N[C@@H](Cc1ccccc1)C(N)=O [L-685,458] | completely blocked | increase in E-Cad/CTF1 | increased | inhibited | – | –
2 | N-Cad/CTF2: chicken cytoplasmic domain of N-cadherin (N-Cad/CTF2) inserted into vector pECE, expressed in L cells (protein) KRRDKERQAKQLLIDPEDDVRDNILKYDEEGGGEEDQDYDLSQLQQPDTVEPDAIKPVGIRRLDERPIHAEPQYPVRSAAPHPGDIGDFINEGLKAADNDPTAPPYDSLLVFDYEGSGSTAGSLSSLNSSSSGGEQDYDYLNDWGPRFKKLADMYGGGDD | – | – | – | – | not affected | inhibits both constitutive and PKA-stimulated CRE-dependent transactivation in a dose-dependent manner
